Reference: PMC7355801, “Synthesis, Cyclooxygenases Inhibition Activities and Interactions with BSA of N-substituted 1H-pyrrolo[3,4-c]pyridine-1,3(2H)-diones Derivatives” (Molecules, 2020)

molecular target: T1, bovine serum albumin (BSA) (Bos taurus, UniProt P02769); experiment: intrinsic fluorescence quenching, excitation […] nm; format: binding; details: 298 K, pH 7.4, no site marker
T1 construct: gene ALB; mature serum albumin, 583 residues, monomer
T1 sequence (P02769 25-607): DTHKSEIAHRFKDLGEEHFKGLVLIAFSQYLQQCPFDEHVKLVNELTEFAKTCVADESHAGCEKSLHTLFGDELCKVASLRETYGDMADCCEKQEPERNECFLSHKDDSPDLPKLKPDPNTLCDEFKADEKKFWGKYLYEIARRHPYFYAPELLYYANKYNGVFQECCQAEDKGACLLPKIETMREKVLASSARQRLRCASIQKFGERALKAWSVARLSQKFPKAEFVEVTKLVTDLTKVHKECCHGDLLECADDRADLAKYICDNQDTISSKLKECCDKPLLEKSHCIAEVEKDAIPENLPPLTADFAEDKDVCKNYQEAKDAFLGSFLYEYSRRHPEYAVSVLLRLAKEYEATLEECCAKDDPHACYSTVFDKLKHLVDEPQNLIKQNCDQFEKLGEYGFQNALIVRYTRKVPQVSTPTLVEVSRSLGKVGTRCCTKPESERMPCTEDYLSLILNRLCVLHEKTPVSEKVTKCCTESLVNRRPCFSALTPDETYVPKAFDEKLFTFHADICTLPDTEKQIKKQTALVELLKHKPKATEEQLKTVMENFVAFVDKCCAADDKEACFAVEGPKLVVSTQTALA

Row | Compound | Double log / Kb × 10^3 [dm^3.mol^-1]
1 | COc1ccccc1N1CCN(CN2C(=O)c3cc(C)n(C)c(=O)c3C2=O)CC1 [C] | 11.51 × 10^3 dm^3·mol^−1
2 | COc1nc(C)cc2c1C(=O)N(CCN1CCOCC1)C2=O [E] | 6.24 × 10^3 dm^3·mol^−1
3 | Cc1cc2c(c(=O)n1C)C(=O)N(CN1CCN(c3cccc(C(F)(F)F)c3)CC1)C2=O [B] | 8.32 × 10^3 dm^3·mol^−1

Now from value to molecule:

Row | Double log / Kb × 10^3 [dm^3.mol^-1] | Compound
4 | 5.37 × 10^3 dm^3·mol^−1 | Cc1cc2c(c(=O)n1C)C(=O)N(CN1CCN(c3ccccc3)CC1)C2=O [A, 5,6-dimethyl-4-oxo-2-[(4-phenyl-1-piperazinyl)methyl]-1H-pyrrolo[3.4-c]pyridine-1,3(2H)-dione]
5 | 4.82 × 10^3 dm^3·mol^−1 | COc1nc(C)cc2c1C(=O)N(CN1CCCC1)C2=O [D, 4-Methoxy–N-[1-(N-pyrrolidine)-methyl]-6-methyl-1H-pyrrolo[3.4-c]pyridine-1,3(2H)-dione]

molecular target: T2, COX-1 (Ovis aries, UniProt P05979); experiment: colorimetric COX peroxidase inhibition kit, […] nm; format: biochemical; details: read-out: Cyclooxygenase Inhibition Assay IC50 [μM] / COX-1
T2 construct: gene PTGS1; homodimer
T2 sequence (P05979 25-600): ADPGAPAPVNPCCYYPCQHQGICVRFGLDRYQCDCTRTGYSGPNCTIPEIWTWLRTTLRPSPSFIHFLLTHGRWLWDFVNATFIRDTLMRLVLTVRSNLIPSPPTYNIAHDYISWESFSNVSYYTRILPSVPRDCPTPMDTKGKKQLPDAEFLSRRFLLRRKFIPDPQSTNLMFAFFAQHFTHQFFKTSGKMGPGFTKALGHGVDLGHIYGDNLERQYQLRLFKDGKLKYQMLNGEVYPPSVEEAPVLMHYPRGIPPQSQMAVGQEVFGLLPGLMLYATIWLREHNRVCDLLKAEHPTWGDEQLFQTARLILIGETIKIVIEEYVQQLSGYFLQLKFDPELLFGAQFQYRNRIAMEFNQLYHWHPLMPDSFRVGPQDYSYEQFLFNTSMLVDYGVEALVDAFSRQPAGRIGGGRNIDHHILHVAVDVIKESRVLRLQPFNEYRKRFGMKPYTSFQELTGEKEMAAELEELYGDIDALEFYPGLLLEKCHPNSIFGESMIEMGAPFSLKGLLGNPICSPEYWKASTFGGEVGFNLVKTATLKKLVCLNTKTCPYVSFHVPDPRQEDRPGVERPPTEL

Row | Compound | IC50 [µM]
6 | COc1ccccc1N1CCN(CN2C(=O)c3cc(C)n(C)c(=O)c3C2=O)CC1 [C] | 95.8
7 | COc1nc(C)cc2c1C(=O)N(CCN1CCOCC1)C2=O [E] | 99.2
8 | Cc1cc2c(c(=O)n1C)C(=O)N(CN1CCN(c3cccc(C(F)(F)F)c3)CC1)C2=O [B] | 93.2

Stronger by IC50, values ahead:

Row | IC50 [µM] | Compound
9 | 81.6 | Cc1cc2c(c(=O)n1C)C(=O)N(CN1CCN(c3ccccc3)CC1)C2=O [A, 5,6-dimethyl-4-oxo-2-[(4-phenyl-1-piperazinyl)methyl]-1H-pyrrolo[3.4-c]pyridine-1,3(2H)-dione]
10 | 76.6 | COc1nc(C)cc2c1C(=O)N(CN1CCCC1)C2=O [D, 4-Methoxy–N-[1-(N-pyrrolidine)-methyl]-6-methyl-1H-pyrrolo[3.4-c]pyridine-1,3(2H)-dione]
